In article PMC12040169 (PLOS Biology, 2025):

test: in vitro; conditions: human, hela cells, % viability

Question: For O=C(NCc1ccc(F)cc1)c1ncoc1-c1cccs1 [CBK283976], which viability at 28.5 h, 10 µM is on record?
Answer: Its viability at 28.5 h, 10 µM is 91.7%.

Question: Which viability at 28.5 h, 10 µM does the source give for Cc1cnc(NC(=O)c2ncoc2-c2cccs2)s1 [CBK283977] here?
Answer: Its viability at 28.5 h, 10 µM is 102%.

Question: With Cc1c(C(=O)NC2(c3ccc(F)cc3)CCCC2)cnn1C [CBK283978] as the compound, how does the viability at 28.5 h, 10 µM read?
Answer: Its viability at 28.5 h, 10 µM is 90.9%.

Question: Which viability at 28.5 h, 10 µM does the source give for CCn1c(N2CCC(C(=O)NC(C)C)CC2)nc2ccccc21 [CBK283982] here?
Answer: The viability at 28.5 h, 10 µM was 83.8%.

Question: Which viability at 28.5 h, 10 µM does the source give for CCn1c(N2CCC(C(=O)NCC3CC3)CC2)nc2ccccc21 [CBK283983] here?
Answer: The viability at 28.5 h, 10 µM was 104%.

Question: Which viability at 28.5 h, 10 µM does the source give for Cn1c(CNC(=O)c2ncoc2-c2cccs2)nc2ccccc21 [CBK283985] here?
Answer: Its viability at 28.5 h, 10 µM is 78.6%.

Question: Which viability at 28.5 h, 10 µM does the source give for CC(C)NC(=O)C1CCN(c2nc3ccccc3n2C)CC1 [CBK283986] here?
Answer: The viability at 28.5 h, 10 µM was 87.5%.

Question: Which viability at 28.5 h, 10 µM does the source give for Cc1nc2c(c(=O)[nH]1)CCN(Cc1cn(C(C)C)c3ccccc13)C2 [CBK283991] here?
Answer: Its viability at 28.5 h, 10 µM is 105%.

Question: For C=CCn1cc(CN2CCc3c(nc(C)[nH]c3=O)C2)c2ccccc21 [CBK283992], which viability at 28.5 h, 10 µM is on record?
Answer: Its viability at 28.5 h, 10 µM is 97.5%.

Question: With CCc1cccc2c(CN3CCc4c(nc(C)[nH]c4=O)C3)c[nH]c12 [CBK283993] as the compound, how does the viability at 28.5 h, 10 µM read?
Answer: The viability at 28.5 h, 10 µM was 94.6%.

Question: For Cc1nc2c(c(=O)[nH]1)CCN(Cc1[nH]c3ccccc3c1C)C2 [CBK283995], which viability at 28.5 h, 10 µM is on record?
Answer: The viability at 28.5 h, 10 µM was 93%.

Question: For Cc1nc2c(c(=O)[nH]1)CCN(Cc1[nH]c3ccc(F)cc3c1C)C2 [CBK283996], which viability at 28.5 h, 10 µM is on record?
Answer: Its viability at 28.5 h, 10 µM is 89.4%.

Question: For O=C1NC2(CCN(C(=O)c3ccccc3F)CC2)Oc2ccccc21 [CBK283997], which viability at 28.5 h, 10 µM is on record?
Answer: Its viability at 28.5 h, 10 µM is 81.9%.

Question: With O=C1NC2(CCN(C(=O)c3cccs3)CC2)Oc2ccccc21 [CBK283998] as the compound, how does the viability at 28.5 h, 10 µM read?
Answer: The viability at 28.5 h, 10 µM was 87.3%.

Question: With O=C(C1CC1)N1CCC2(CC1)Nc1ccccc1-n1cccc12 [CBK284011] as the compound, how does the viability at 28.5 h, 10 µM read?
Answer: The viability at 28.5 h, 10 µM was 91.5%.

Question: Which viability at 28.5 h, 10 µM does the source give for Cc1nc2c(c(=O)[nH]1)CN(Cc1cn(C(C)C)c3ccccc13)CC2 [CBK284014] here?
Answer: The viability at 28.5 h, 10 µM was 93.5%.

Question: Which viability at 28.5 h, 10 µM does the source give for CCN(CC)C(=O)Cn1c(=O)n(Cc2ccco2)c2ncccc21 [CBK284016] here?
Answer: Its viability at 28.5 h, 10 µM is 109%.

Question: With Cc1nn(CC(=O)OC(C)C)c(=O)c2cc3sccc3n12 [CBK284022] as the compound, how does the viability at 28.5 h, 10 µM read?
Answer: Its viability at 28.5 h, 10 µM is 93.7%.

Question: With Cc1nn(CC(=O)NC2CCCC2)c(=O)c2cc3sccc3n12 [CBK284023] as the compound, how does the viability at 28.5 h, 10 µM read?
Answer: The viability at 28.5 h, 10 µM was 104%.

Question: For Cc1nn(CC(=O)NCC2CC2)c(=O)c2cc3sccc3n12 [CBK284025], which viability at 28.5 h, 10 µM is on record?
Answer: The viability at 28.5 h, 10 µM was 94.5%.

Question: With Cc1nn(CC(=O)NC2CC2)c(=O)c2cc3ccsc3n12 [CBK284026] as the compound, how does the viability at 28.5 h, 10 µM read?
Answer: Its viability at 28.5 h, 10 µM is 92.3%.

Question: With CCc1nn(CC(=O)NC2CC2)c(=O)c2cc3sccc3n12 [CBK284029] as the compound, how does the viability at 28.5 h, 10 µM read?
Answer: Its viability at 28.5 h, 10 µM is 88.7%.

Question: For CCc1nn(CC(=O)N(C)C)c(=O)c2cc3sccc3n12 [CBK284031], which viability at 28.5 h, 10 µM is on record?
Answer: The viability at 28.5 h, 10 µM was 91.3%.

Question: Which viability at 28.5 h, 10 µM does the source give for O=C(c1ccccn1)N1C2CCC1CC(O)(c1ccco1)C2 (stereo not shown) [CBK284034] here?
Answer: The viability at 28.5 h, 10 µM was 87%.

Question: Which viability at 28.5 h, 10 µM does the source give for O=C(C1CCCO1)N1C2CCC1CC(O)(c1ccco1)C2 (stereo not shown) [CBK284035] here?
Answer: The viability at 28.5 h, 10 µM was 83%.

Question: Which viability at 28.5 h, 10 µM does the source give for Cc1cc2nccc(C3CCCN(C(=O)OC(C)(C)C)C3)n2n1 (stereo not shown) [CBK284037] here?
Answer: The viability at 28.5 h, 10 µM was 90.8%.

Question: With CC(C)C(=O)N1CCCC(n2nc(-c3cccs3)ccc2=O)C1 (stereo not shown) [CBK284038] as the compound, how does the viability at 28.5 h, 10 µM read?
Answer: Its viability at 28.5 h, 10 µM is 92.3%.

Question: With Cc1nn(CC(=O)N2CCCCC2)c(=O)c2cc3sccc3n12 [CBK284040] as the compound, how does the viability at 28.5 h, 10 µM read?
Answer: The viability at 28.5 h, 10 µM was 93.6%.

Question: With Cc1nn(CC(=O)N2CCCC(C)C2)c(=O)c2cc3ccsc3n12 (stereo not shown) [CBK284041] as the compound, how does the viability at 28.5 h, 10 µM read?
Answer: The viability at 28.5 h, 10 µM was 81.7%.

Question: For Cc1nn(CC(=O)OC2CCCCC2)c(=O)c2cc3sccc3n12 [CBK284045], which viability at 28.5 h, 10 µM is on record?
Answer: Its viability at 28.5 h, 10 µM is 80.8%.

Question: For Cc1nn(CC(=O)N2CCCC(C)C2)c(=O)c2cc3sccc3n12 (stereo not shown) [CBK284046], which viability at 28.5 h, 10 µM is on record?
Answer: The viability at 28.5 h, 10 µM was 87.7%.

Question: For Cn1ccnc1C1(O)CC2CCC(C1)N2C(=O)NC1CCCCC1 (stereo not shown) [CBK284049], which viability at 28.5 h, 10 µM is on record?
Answer: Its viability at 28.5 h, 10 µM is 88.5%.

Question: For Cn1ccnc1C1(O)CC2CCC(C1)N2C(=O)NCc1ccccc1 (stereo not shown) [CBK284050], which viability at 28.5 h, 10 µM is on record?
Answer: Its viability at 28.5 h, 10 µM is 81.3%.

Question: Which viability at 28.5 h, 10 µM does the source give for Cn1ccnc1C1(O)CC2CCC(C1)N2C(=O)Nc1ccc(F)cc1 (stereo not shown) [CBK284051] here?
Answer: The viability at 28.5 h, 10 µM was 85.7%.

Question: With COc1cccc(CC(=O)N2C3CCC2CC(O)(c2ccco2)C3)c1 (stereo not shown) [CBK284053] as the compound, how does the viability at 28.5 h, 10 µM read?
Answer: The viability at 28.5 h, 10 µM was 80.5%.

Question: Which viability at 28.5 h, 10 µM does the source give for CCc1nn(CC(=O)NCC2CC2)c(=O)c2cc3sccc3n12 [CBK284055] here?
Answer: Its viability at 28.5 h, 10 µM is 90.5%.

Question: Which viability at 28.5 h, 10 µM does the source give for Cc1nn(CC(=O)N2CCCC2)c(=O)c2cc3ccsc3n12 [CBK284057] here?
Answer: Its viability at 28.5 h, 10 µM is 88.7%.
